The source of these data is patent publication US20120116069A1, “GLUCOSE METABOLISM-IMPROVING AGENT AND GLUCOSE METABOLISM-IMPROVING COMPOSITION” (LION CORPORATION, priority 2009, published 2012).

Assay [1] has as its system model mice of hyperglycemia (KKAy mice). The assay is described as follows: Blood sugar level of model mice of hyperglycemia bred five days on PT- or PD-containing high fat diet. The assay is classed as in vivo, mouse. The note with it: for Blood sugar level (post-breeding): after five days; for Blood sugar level (initial value): before breeding. From the text: Panaxatriol (PT) (product of LKT Laboratories, Inc.) was mixed with a commercially available high fat diet (trade name: Quick Fat, product of CLEA Japan, Inc.) in amounts shown in the following Table 1. Each of the thus-prepared feeds was given ad libitum to model mice of hyperglycemia (KKAy mice (product of CLEA Japan, Inc.), eight weeks old, 5 mice/group) to breed them for five days (hereinafter these groups may be referred to as “PT-containing group”). Mice of a control group were given a panaxatriol (PT)-free feed (hereinafter this group may be referred to as “PT-free group”). The blood sugar level was measured at 10 a.m. before breeding of the panaxatriol (PT)-containing high fat diet (initial value) and after breeding thereof (post-breeding). […] GB SENSOR (product of Sanko Junyaku Co., Ltd.) was used for the measurement of the blood sugar level. The values shown in the following Table 1 are calculated on the basis of the average value of two values obtained by measuring each individual twice for the postprandial blood sugar level. […] Panaxadiol (PD) (product of LKT Laboratories, Inc.) was mixed with a commercially available high fat diet (trade name: Quick Fat, product of CLEA Japan, Inc.) in amounts shown in the following Table 2. Each of the thus-prepared feeds was given ad libitum to model mice of hyperglycemia (KKAy mice (product of CLEA Japan, Inc.), eight weeks old, 5 mice/group) to breed them for five days (hereinafter these groups may be referred to as “PD-containing group”). Mice of a control group were given a panaxadiol (PD)-free feed (hereinafter this group may be referred to as “PD-free group”). The blood sugar level was measured at 10 a.m. before breeding of the panaxadiol (PD)-containing high fat diet (initial value) and after breeding thereof (post-breeding). […] GB SENSOR (product of Sanko Junyaku Co., Ltd.) was used for the measurement of the blood sugar level. The values shown in the following Table 2 are calculated on the basis of the average value of two values obtained by measuring each individual twice for the postprandial blood sugar level.

The subject of assay [2] is model mice of hyperglycemia (KKAy mouse). The assay is described as follows: Blood sugar level of KKAy mice after one-week main breeding on high fat diet containing PT or PD. Format: in vivo. The note with it: 0.1% by mass in high fat diet (control group 335.4 mg/dL). How it is done:
Twenty-four model mice of hyperglycemia (KKAy mouse (product of CLEA Japan, Inc.), male, four weeks old) were preliminarily bred for one week in individual cages under the following conditions: temperature: room temperature (22° C.±1° C.), humidity: 50%±5%, and light-dark cycle: 12 hours. Eight grams per day of CE-2 (product of CLEA Japan, Inc.) was given to each mouse as feed during the preliminary breeding, while water was given ad libitum. After completion of the preliminary breeding, the mice were measured for body weight and blood sugar level. Then, they were divided into three groups, each containing eight mice, so that the body weights and blood sugar levels were averaged in the three groups, followed by main breeding in a manner described below. […] GB SENSOR (product of Sanko Junyaku Co., Ltd.) using the whole blood sampled from the tale vein of the mouse. The mice of one group were subjected to main breeding for one week under the conditions that eight grams per day of a commercially available high fat diet (trade name: Quick Fat, product of CLEA Japan, Inc.) was given to each mouse while water was given ad libitum. […] Hereinafter, this group may be referred to as “PD-administered group.” After the one-week main breeding, the mice were measured for blood sugar level and body weight, and then were subjected to measurement of the amount of ^13CO2 excreted.

Where [3] appears, read: 0.0001% by mass in high fat diet ad libitum.
Where [4] appears, read: 0.001% by mass in high fat diet ad libitum.
Where [5] appears, read: 0.01% by mass in high fat diet ad libitum.
The mark [6] stands for this setting: group 0.0001% by mass in high fat diet.
Setting [7] is: group 0.001% by mass in high fat diet.
Where [8] appears, read: group 0.01% by mass in high fat diet.

On to `CC1(C)CCC[C@](C)([C@H]2CC[C@]3(C)[C@@H]2[C@H](O)C[C@@H]2[C@@]4(C)CC[C@H](O)C(C)(C)[C@@H]4CC[C@]23C)O1` [PD, panaxadiol], for which the results for the “Blood sugar level (post-breeding)” value in assay [1] (setting [3]), in assay [1] (setting [4]) and in assay [1] (setting [5]) were 404 ± 17 mg/dL, 323 ± 56 mg/dL and 274 ± 34 mg/dL, respectively. Also, the “Blood sugar level (initial value)” value in assay [1] (setting [6]) came to 454 ± 38 mg/dL; in assay [1] (setting [7]) it was 451 ± 34 mg/dL; in assay [1] (setting [8]), 454 ± 32 mg/dL. Further, in assay [2], the blood sugar level is reported as 231.6 mg/dL.

With `CC1(C)CCC[C@](C)([C@H]2CC[C@]3(C)[C@@H]2[C@H](O)C[C@@H]2[C@@]4(C)CC[C@H](O)C(C)(C)[C@@H]4[C@@H](O)C[C@]23C)O1` [PT, panaxatriol], the “Blood sugar level (post-breeding)” value was determined as 401 ± 15 mg/dL in assay [1] (setting [3]), 318 ± 58 mg/dL in assay [1] (setting [4]) and 265 ± 39 mg/dL in assay [1] (setting [5]). For the same molecule, the results for the “Blood sugar level (initial value)” value in assay [1] (setting [6]), in assay [1] (setting [7]) and in assay [1] (setting [8]) were 455 ± 39 mg/dL, 451 ± 34 mg/dL and 451 ± 38 mg/dL, respectively. This molecule also gave a blood sugar level in assay [2] of 199.3 mg/dL.
